Laboratory results from PubChem BioAssay (NCI).
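Cells were grown in 96-well plates and exposed to each compound for 48 hours at five concentrations; endpoints were interpolated linearly between bracketing concentrations, or set to the highest concentration if not reached. TGI marks complete inhibition of growth.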

Key:
Experiment in all cases: growth of human tumour cells (NCI), 48 h
[1] = test system: DU-145 prostate
[2] = test system: CCRF-CEM leukemia
[3] = test system: UACC-257 melanoma
[4] = test system: EKVX NSCLC
[5] = test system: KM12 colon
[6] = test system: SW-620 colon
[7] = test system: SNB-75 CNS
[8] = test system: T-47D breast
[9] = test system: SN12C renal
[10] = test system: MCF7 breast
[11] = test system: SF-268 CNS
[12] = test system: 786-0 renal
[13] = test system: MDA-N
[14] = test system: TK-10 renal
[15] = test system: COLO 205 colon
[16] = test system: RXF 393 renal
[17] = test system: HOP-62 NSCLC
[18] = test system: SK-MEL-2 melanoma
[19] = test system: UACC-62 melanoma
[20] = test system: SK-OV-3 ovarian
[21] = test system: HCC-2998 colon
[22] = test system: NCI-H226 lung
[23] = test system: SR leukemia
[24] = test system: A549 NSCLC
[25] = test system: SK-MEL-28 melanoma
[26] = test system: OVCAR-5 ovarian
[27] = test system: SK-MEL-5 melanoma
[28] = test system: NCI-H23 lung
[29] = test system: MOLT-4 leukemia
[30] = test system: UO-31 renal
[31] = test system: OVCAR-4 ovarian
[32] = test system: IGROV1 ovarian
[33] = test system: SF-295 CNS
[34] = test system: HS 578T breast
[35] = test system: M14 melanoma
[36] = test system: HCT-116 colon
[37] = test system: U251 CNS
[38] = test system: HT29 colon
[39] = test system: MDA-MB-231 breast
[40] = test system: MALME-3M melanoma
[41] = test system: CAKI-1 renal
[42] = test system: ACHN renal
[43] = test system: HL-60(TB) leukemia
[44] = test system: K-562 leukemia
[45] = test system: NCI/ADR-RES ovarian
[46] = test system: NCI-H522 lung
[47] = test system: LOX IMVI melanoma
[48] = test system: HCT-15 colon
[49] = test system: BT-549 breast
[50] = test system: NCI-H460 lung
[51] = test system: OVCAR-8 ovarian
[52] = test system: SF-539 CNS
[53] = test system: PC-3 prostate
[54] = test system: HOP-92 NSCLC
[55] = test system: OVCAR-3 ovarian
[56] = test system: SNB-19 CNS
[57] = test system: RPMI-8226 leukemia
[58] = test system: A498 renal
[59] = test system: MDA-MB-435

CC1(C)OC(=O)C(Cc2ccccc2)(Cc2ccccc2)C(=O)O1
TGI [1]: > 100 µM | TGI [2]: > 100 µM | TGI [3]: > 100 µM | TGI [4]: > 100 µM | TGI [5]: > 100 µM | TGI [6]: > 100 µM | TGI [7]: > 100 µM | TGI [8]: > 100 µM | TGI [9]: > 100 µM | TGI [10]: > 100 µM | TGI [11]: > 100 µM | TGI [12]: > 100 µM | TGI [13]: > 100 µM | TGI [14]: > 100 µM | TGI [15]: > 100 µM | TGI [16]: > 100 µM | TGI [17]: > 100 µM | TGI [18]: > 100 µM | TGI [19]: > 100 µM | TGI [20]: > 100 µM | TGI [21]: > 100 µM | TGI [22]: > 100 µM | TGI [23]: > 100 µM | TGI [24]: > 100 µM | TGI [25]: > 100 µM | TGI [26]: > 100 µM | TGI [27]: > 100 µM | TGI [28]: > 100 µM | TGI [29]: > 100 µM | TGI [30]: > 100 µM | TGI [31]: > 100 µM | TGI [32]: > 100 µM | TGI [33]: > 100 µM | TGI [34]: > 100 µM | TGI [35]: > 100 µM | TGI [36]: > 100 µM | TGI [37]: > 100 µM | TGI [38]: > 100 µM | TGI [39]: > 100 µM | TGI [40]: > 100 µM | TGI [41]: > 100 µM | TGI [42]: > 100 µM | TGI [43]: > 100 µM | TGI [44]: > 100 µM | TGI [45]: > 100 µM | TGI [46]: > 100 µM | TGI [47]: > 100 µM | TGI [48]: > 100 µM | TGI [49]: > 100 µM | TGI [50]: > 100 µM | TGI [51]: > 100 µM | TGI [52]: > 100 µM | TGI [53]: > 100 µM

O=C(NCCCN1CCN(CCCNC(=O)Nc2cccc3ccccc23)CC1)Nc1cccc2ccccc12
TGI [1]: 31.3 µM | TGI [2]: 71.3 µM | TGI [3]: 25.9 µM | TGI [4]: 33.2 µM | TGI [5]: 43.3 µM | TGI [6]: 22.9 µM | TGI [7]: 36.5 µM | TGI [54]: 29.5 µM | TGI [8]: 32.1 µM | TGI [9]: 30.7 µM | TGI [10]: 36.4 µM | TGI [11]: 38.8 µM | TGI [12]: 34.1 µM | TGI [13]: 30 µM | TGI [14]: 28.4 µM | TGI [55]: 26.5 µM | TGI [15]: 31.5 µM | TGI [16]: 27.6 µM | TGI [17]: 23.9 µM | TGI [18]: 34.2 µM | TGI [19]: 11.9 µM | TGI [21]: 4.58 µM | TGI [24]: 33.5 µM | TGI [25]: 28.7 µM | TGI [26]: 28.3 µM | TGI [27]: 30.2 µM | TGI [28]: 33.6 µM | TGI [30]: 31.2 µM | TGI [31]: 44.1 µM | TGI [56]: 48.4 µM | TGI [32]: 35.9 µM | TGI [33]: 27.4 µM | TGI [57]: 40 µM | TGI [34]: 49.1 µM | TGI [35]: 29.9 µM | TGI [36]: 28 µM | TGI [37]: 18.9 µM | TGI [38]: 44.3 µM | TGI [39]: 8.21 µM | TGI [40]: 11.8 µM | TGI [41]: 31.7 µM | TGI [42]: 30.1 µM | TGI [43]: 67.2 µM | TGI [58]: 30.5 µM | TGI [44]: > 100 µM | TGI [59]: 31.4 µM | TGI [45]: > 100 µM | TGI [46]: 33.4 µM | TGI [47]: 20.7 µM | TGI [48]: 31.9 µM | TGI [49]: 27.1 µM | TGI [51]: 38.7 µM | TGI [52]: 34.3 µM | TGI [53]: 21.5 µM
